The source made the active and inactive calls. The calls are words filed in the database; no cut-off is given here.
Legend:
[1] = system: Rattus norvegicus; experiment: Toxicity in albino Wistar rat assessed as very low-density lipoprotein cholesterol level at 5 mg/kg/day, po for 15 days (reference value: 14.85 +/- 2.43 mg/dl); format: organism-based; conditions: in vivo, 360 h
[2] = system: Rattus norvegicus; experiment: Inhibition of L-T4-induced decrease in GSH level in albino Wistar rat liver at 5 mg/kg/day, po cotreated with 0.5 mg/kg L-T4 for 15 days; format: functional, organism-based
[3] = system: Rattus norvegicus; experiment: Inhibition of L-T4-induced decrease in SOD activity in albino Wistar rat liver at 5 mg/kg/day, po cotreated with 0.5 mg/kg L-T4 for 15 days; format: functional, organism-based
[4] = system: Rattus norvegicus; experiment: Inhibition of L-T4-induced increase in T3 level in albino Wistar rat at 2.5 mg/kg/day, po cotreated with 0.5 mg/kg L-T4 for 15 days by RIA (reference value: 1.55 +/- 0.131 ng/ml); format: functional
[5] = system: Rattus norvegicus; experiment: Inhibition of L-T4-induced increase in T4 level in albino Wistar rat at 2.5 mg/kg/day, po cotreated with 0.5 mg/kg L-T4 for 15 days by RIA (reference value: 112.86 +/- 4.77 ng/ml); format: functional
[6] = system: Rattus norvegicus; experiment: Toxicity in albino Wistar rat assessed as triglyceride level at 5 mg/kg/day, po for 15 days (reference value: 73.33 +/- 3.1 mg/dl); format: organism-based; conditions: in vivo, 360 h
[7] = system: Rattus norvegicus; experiment: Inhibition of L-T4-induced decrease in triglyceride level in albino Wistar rat at 5 mg/kg/day, po cotreated with 0.5 mg/kg L-T4 for 15 days (reference value: 42.15 +/- 3.23 mg/dl); format: functional
[8] = system: Rattus norvegicus; experiment: Toxicity in albino Wistar rat assessed as high-density lipoprotein cholesterol level at 5 mg/kg/day, po for 15 days (reference value: 45.52 +/- 3.08 mg/dl); format: organism-based; conditions: in vivo, 360 h
[9] = system: Rattus norvegicus; experiment: Inhibition of L-T4-induced decrease in low-density lipoprotein cholesterol in albino Wistar rat at 5 mg/kg/day, po cotreated with 0.5 mg/kg L-T4 for 15 days (reference value: 31.68 +/- 4.25 mg/dl); format: functional
[10] = system: Rattus norvegicus; experiment: Inhibition of L-T4-induced decrease in catalase activity in albino Wistar rat liver assessed as H2O2 decomposition at 5 mg/kg/day, po cotreated with 0.5 mg/kg L-T4 for 15 days by spectrophotmetry; format: functional, organism-based
[11] = system: Rattus norvegicus; experiment: Inhibition of L-T4-induced increase in hepatic 5-monodeiodinase-l activity in albino Wistar rat assessed as T3 formation at 5 mg/kg/day, po cotreated with 0.5 mg/kg L-T4 for 15 days by RIA; format: functional, organism-based
[12] = system: Rattus norvegicus; experiment: Inhibition of L-T4-induced increase in lipid peroxidation in albino Wistar rat assessed as malondialdehyde formed per mg of protein at 10 mg/kg/day, po cotreated with 0.5 mg/kg L-T4 for 15 days (reference value: 0.977 +/- 0.035 nM/hr); format: functional
[13] = system: Rattus norvegicus; experiment: Inhibition of L-T4-induced increase in T3 level in albino Wistar rat at 5 mg/kg/day, po cotreated with 0.5 mg/kg/day L-T4 for 15 days by RIA (reference value: 1.55 +/- 0.131 ng/ml); format: functional
[14] = system: Rattus norvegicus; experiment: Inhibition of L-T4-induced increase in lipid peroxidation in albino Wistar rat assessed as malondialdehyde formed per mg of protein at 5 mg/kg/day, po cotreated with 0.5 mg/kg L-T4 for 15 days (reference value: 0.977 +/- 0.035 nM/hr); format: functional
[15] = system: Rattus norvegicus; experiment: Inhibition of L-T4-induced increase in T3 level in albino Wistar rat at 10 mg/kg/day, po cotreated with 0.5 mg/kg L-T4 for 15 days by RIA (reference value: 1.55 +/- 0.131 ng/ml); format: functional
[16] = system: Rattus norvegicus; experiment: Inhibition of L-T4-induced increase in lipid peroxidation in albino Wistar rat assessed as malondialdehyde formed per mg of protein at 2.5 mg/kg/day, po cotreated with 0.5 mg/kg L-T4 for 15 days (reference value: 0.977 +/- 0.035 nM/hr); format: functional
[17] = system: Rattus norvegicus; experiment: Inhibition of L-T4-induced decrease in very low-density lipoprotein cholesterol in albino Wistar rat at 5 mg/kg/day, po cotreated with 0.5 mg/kg L-T4 for 15 days (reference value: 8.65 +/- 2.76 mg/dl); format: functional
[18] = system: Rattus norvegicus; experiment: Toxicity in albino Wistar rat assessed as low-density lipoprotein cholesterol level at 5 mg/kg/day, po for 15 days (reference value: 83.85 +/- 2.96 mg/dl); format: organism-based; conditions: in vivo, 360 h
[19] = system: Rattus norvegicus; experiment: Inhibition of L-T4-induced loss of body weight in albino Wistar rat assessed as increase in body weight at 5 mg/kg/day, po cotreated with 0.5 mg/kg L-T4 for 15 days […]; format: functional, organism-based
[20] = system: Rattus norvegicus; experiment: Toxicity in albino Wistar rat assessed as total cholesterol level at 5 mg/kg/day, po for 15 days (reference value: 114.97 +/- 4.76 mg/dl); format: organism-based; conditions: in vivo, 360 h
[21] = system: Rattus norvegicus; experiment: Inhibition of L-T4-induced decrease in high-density lipoprotein cholesterol in albino Wistar rat at 5 mg/kg/day, po cotreated with 0.5 mg/kg L-T4 for 15 days (reference value: 20.18 +/- 2.32 mg/dl); format: functional
[22] = system: Rattus norvegicus; experiment: Inhibition of L-T4-induced decrease in total cholesterol level in albino Wistar rat at 5 mg/kg/day, po cotreated with 0.5 mg/kg L-T4 for 15 days (reference value: 58.77 +/- 3.95 mg/dl); format: functional
[23] = system: Rattus norvegicus; experiment: Inhibition of L-T4-induced increase in T4 level in albino Wistar rat at 5 mg/kg/day, po cotreated with 0.5 mg/kg L-T4 for 15 days by RIA (reference value: 112.86 +/- 4.77 ng/ml); format: functional
[24] = system: Rattus norvegicus; experiment: Inhibition of L-T4-induced increase in Glucose-6-phosphate activity in albino Wistar rat at 5 mg/kg/day, po cotreated with 0.5 mg/kg L-T4 for 15 days […]; format: functional, organism-based
[25] = system: Rattus norvegicus; experiment: Inhibition of L-T4-induced increase in T4 level in albino Wistar rat at 10 mg/kg/day, po cotreated with 0.5 mg/kg L-T4 for 15 days by RIA (reference value: 112.86 +/- 4.77 ng/ml); format: functional

## COc1cc(-c2cc(=O)c3c(O[C@@H]4O[C@@H](C)[C@H](O)[C@@H](O)[C@H]4O)c(OC)c(O)cc3o2)ccc1O
[1]
  Activity: 12.91 mg/dL
[2]
  inhibition: Active
[3]
  inhibition: Active
[4]
  Activity: 1.01 ng/mL
[5]
  Activity: 98.6 ng/mL
[6]
  Activity: 61.1 mg/dL
[7]
  Activity: 68.31 mg/dL
[8]
  Activity: 48.97 mg/dL
[9]
  Activity: 72.42 mg/dL
[10]
  inhibition: Active
[11]
  inhibition: Active
[12]
  Activity: 0.512 nM/h
[13]
  Activity: 0.43 ng/mL
[14]
  Activity: 0.239 nM/h
[15]
  Activity: 1.39 ng/mL
[16]
  Activity: 0.619 nM/h
[17]
  Activity: 14.09 mg/dL
[18]
  Activity: 60.16 mg/dL
[19]
  Activity: Active
[20]
  Activity: 96.22 mg/dL
[21]
  Activity: 40.95 mg/dL
[22]
  Activity: 98.14 mg/dL
[23]
  Activity: 56.7 ng/mL
[24]
  inhibition: Active
[25]
  Activity: 102.45 ng/mL

Reference: ChEMBL document CHEMBL3734758, “Protective effects of 5,7,4'-trihydroxy-6,3'dimethoxy-flavone 5-O-α-l-rhamnopyranoside, isolated from Annona squamosa leaves in thyrotoxicosis and in hepatic lipid peroxidation in rats” (Bioorg Med Chem Lett, 2015)
